Measurements reported in patent US10519154B2, “7-substituted 1-pyridyl-naphthyridine-3-carboxylic acid amides and use thereof” (Bayer Pharma Aktiengesellschaft, priority 2016, dated 2019).
pEC50: −log10 of the molar value.

How the values were obtained:
[1] = biological target: T1, human M2 receptor (Homo sapiens, UniProt P08172); assay: Functional M2-GIRK1/4 activation test: positive cooperativity (alpha factor); conditions: shift of acetylcholine dose-response curve (Allosteric EC50 shift); CHO-DUKX-M2-GIRK cells
T1 sequence (P08172 1-466): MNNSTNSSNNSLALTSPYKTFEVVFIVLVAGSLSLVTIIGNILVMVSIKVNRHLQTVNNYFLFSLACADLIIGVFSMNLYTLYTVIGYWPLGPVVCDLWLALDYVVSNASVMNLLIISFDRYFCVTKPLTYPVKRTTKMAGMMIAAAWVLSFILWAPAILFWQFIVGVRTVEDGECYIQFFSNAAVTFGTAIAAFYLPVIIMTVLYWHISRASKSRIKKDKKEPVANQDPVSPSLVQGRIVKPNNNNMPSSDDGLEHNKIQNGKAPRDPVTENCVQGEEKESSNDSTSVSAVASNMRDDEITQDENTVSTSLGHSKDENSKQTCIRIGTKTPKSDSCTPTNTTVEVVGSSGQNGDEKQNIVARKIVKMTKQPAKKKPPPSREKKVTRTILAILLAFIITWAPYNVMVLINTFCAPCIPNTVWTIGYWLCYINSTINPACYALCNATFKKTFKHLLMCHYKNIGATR
Text: The binding of orthosteric agonists (endogenous ligand: acetylcholine) to the M2 receptor leads to receptor activation or a change in conformation of the receptor in the manner of a shift in equilibrium in favor of the active receptor conformation.
The agonist-induced change in conformation of the M2 receptor results in a Gαi protein activation. […] Under physiological conditions, the result is then a selective efflux of potassium from the cell along the electrochemical gradient. […] The extent of hyperpolarization can therefore be regarded as a measure of the activation of the M2 receptor.
The test cell used is a recombinant CHO-DUKX cell line which has been stably transfected with cDNA coding for the human M2 receptor and with cDNA coding for both GIRK1/4 subunits (CHO-DUKX-M2-GIRK). The transmembrane potential, or the relative changes in the transmembrane potential as a function of substance addition or M2 activation, is determined by means of a voltage-sensitive dye (FLIPR Membrane Potential Assay Kit Blue, Molecular Devices #R8034) and the measurement of cell fluorescence using a proprietary fluorescence imaging instrument.
In accordance with the desired test concentrations, the substances were pre-diluted in loading buffer (see above).
The sowing medium consisted of MEM alpha medium (supplemented with 5% FCS, 2% Glutamax, no genticin).
For the particular measurement, the medium was removed and the cells were laden with the voltage-sensitive dye for at least 6 min at room temperature (30 μl of loading buffer per 384-well). This was followed, in a first measurement, by the determination of the resting transmembrane potential for a period of 5 sec in 1 sec increments. Thereafter, 10 μl in each case of the test substances diluted in loading buffer are added, followed by a second measurement to determine the transmembrane potential for a period of 50 sec in 1 sec increments.
Finally, the cells are admixed with 10 μl of agonist solution (acetylcholine dissolved in loading buffer). In contrast to the EC50 determination of the test substances (see B-1.1), however, this is not done using one acetylcholine concentration; instead, every concentration of the test substance is combined with an acetylcholine 8-point dose-response curve. […] The M2-mediated GIRK1/4 activation or hyperpolarization is then monitored in a third measurement over a period of 60 sec in 1 sec increments. The shift in the acetylcholine dose-response curve in the presence of increasing concentrations of the test substance is analyzed and quantified by means of GraphPad PRISM (Allosteric EC50 shift). […] Positive cooperativity is the hallmark of a positive allosteric modulator. […] The greater the magnitude of the cc value, the greater the extent of cooperativity between orthosteric and allosteric.

[2] = biological target: T1, human M2 receptor; assay: Functional M2-GIRK1/4 activation test: allosteric potency (EC50) and efficiency; conditions: for pEC50: Receptor activity EC50, CHO-DUKX-M2-GIRK cells, acetylcholine at EC20, in some cases mean of two or more determinations; for Efficiency: boosting of the acetylcholine effect at EC20 acetylcholine concentration; for Efficiency / Emax: CHO-DUKX-M2-GIRK cells; for Emax: read-out: Efficiency, boosting of the acetylcholine effect at EC20 acetylcholine concentration

Row | Structure (SMILES) | Cooperativity (alpha factor) [1] | pEC50 [2] | Efficiency [2] | Emax [2]
1 | CCC(NC(=O)c1cn(-c2ncc(F)cc2F)c2nc(N3C[C@@H](O)[C@H](O)C3)ccc2c1=O)C(F)(F)C(F)(F)F (single isomer, unassigned) [Example 97] | 53 | 7.42 | 96.50% | –
2 | CC1CC(=O)N(c2ccc3c(=O)c(C(=O)N[C@H](C4CC4)C(F)(F)F)cn(-c4ncc(F)cc4F)c3n2)C1 (mixture of isomers) [Example 27, N-[(1R)-1-Cyclopropyl-2,2,2-trifluoroethyl]-1-(3,5-difluoropyridin-2-yl)-7-[4-methyl-2-oxopyrrolidin-1-yl]-4-oxo-1,4-dihydro-1,8-naphthyridine-3-carboxamide] | 10 | 7.44 | – | 79%
3 | CCC(COC(F)(F)F)NC(=O)c1cn(-c2ncc(F)cc2F)c2nc(N3C[C@@H](O)CC3=O)ccc2c1=O (single isomer, unassigned) [Example 18] | 34 | 7.17 | – | 87%
4 | CC[C@@H](NC(=O)c1cn(-c2ncccc2F)c2nc(N3C[C@@H](O)CC3=O)ccc2c1=O)C(F)(F)F [Example 140, 1-(3-Fluoropyridin-2-yl)-7-[(4S)-4-hydroxy-2-oxopyrrolidin-1-yl]-4-oxo-N-[(2R)-1,1,1-trifluorobutan-2-yl]-1,4-dihydro-1,8-naphthyridine-3-carboxamide] | 47 | 6.60 | – | 92%
5 | CC[C@H](NC(=O)c1cn(-c2ncc(F)cc2F)c2nc(N3CCNC3=O)ccc2c1=O)C(F)(F)F [Example 64, 1-(3,5-Difluoropyridin-2-yl)-4-oxo-7-(2-oxoimidazolidin-1-yl)-N-[(2S)-1,1,1-trifluorobutan-2-yl]-1,4-dihydro-1,8-naphthyridine-3-carboxamide] | 32 | 6.81 | – | 91.3%
6 | CC[C@H](NC(=O)c1cn(-c2ncc(F)cc2F)c2nc(N3C(=O)C(C)(C)C(O)C34CC4)ccc2c1=O)C(F)(F)F (stereo partly drawn) [Example 31, 1-(3,5-Difluoropyridin-2-yl)-7-[7-hydroxy-6,6-dimethyl-5-oxo-4-azaspiro[2.4]hept-4-yl]-4-oxo-N-[(2S)-1,1,1-trifluorobutan-2-yl]-1,4-dihydro-1,8-naphthyridine-3-carboxamide] | – | 6.19 | – | 88.5%
7 | CC(C)C[C@@H](NC(=O)c1cn(-c2ncc(F)cc2F)c2nc(N3C[C@@H](O)CC3=O)ccc2c1=O)C(F)(F)F [Example 74, 1-(3,5-Difluoropyridin-2-yl)-7-[(4S)-4-hydroxy-2-oxopyrrolidin-1-yl]-4-oxo-N-[(2R)-1,1,1-trifluoro-4-methylpentan-2-yl]-1,4-dihydro-1,8-naphthyridine-3-carboxamide] | – | 7.85 | – | 100%
8 | O=C(NC(CC(F)(F)F)C(F)(F)F)c1cn(-c2ncc(F)cc2F)c2nc(N3C[C@@H](O)CC3=O)ccc2c1=O (stereo partly drawn) [Example 159, 1-(3,5-Difluoropyridin-2-yl)-N-[1,1,1,4,4,4-hexafluorobutan-2-yl]-7-[(4S)-4-hydroxy-2-oxopyrrolidin-1-yl]-4-oxo-1,4-dihydro-1,8-naphthyridine-3-carboxamide] | – | 7.03 | – | 100%
9 | O=C(NC(C(F)(F)F)C(F)(F)F)c1cn(-c2ncc(F)cc2F)c2nc(N3CCNC3=O)ccc2c1=O [Example 158, 1-(3,5-Difluoropyridin-2-yl)-N-(1,1,1,3,3,3-hexafluoropropan-2-yl)-4-oxo-7-(2-oxoimidazolidin-1-yl)-1,4-dihydro-1,8-naphthyridine-3-carboxamide] | – | 6.94 | – | 90.5%
10 | O=C(NC(c1ccc(F)cc1)C(F)(F)F)c1cn(-c2ncc(F)cc2F)c2nc(N3C[C@@H](O)CC3=O)ccc2c1=O (mixture of isomers) [Example 11, 1-(3,5-Difluoropyridin-2-yl)-7-[(4S)-4-hydroxy-2-oxopyrrolidin-1-yl]-4-oxo-N-[2,2,2-trifluoro-1-(4-fluorophenyl)ethyl]-1,4-dihydro-1,8-naphthyridine-3-carboxamide] | – | 7.43 | – | 99.5%
11 | CC[C@@H](NC(=O)c1cn(-c2ncc(F)cc2F)c2nc(N3CCCCC3=O)ccc2c1=O)C(F)(F)F [Example 34, 1-(3,5-Difluoropyridin-2-yl)-4-oxo-7-(2-oxopiperidin-1-yl)-N-[(2R)-1,1,1-trifluorobutan-2-yl]-1,4-dihydro-1,8-naphthyridine-3-carboxamide] | – | 6.06 | – | 82%
12 | O=C(N[C@@H](C1CC1)C(F)(F)F)c1cn(-c2ncc(F)cc2F)c2nc(N3CCN(CCO)C3=O)ccc2c1=O [Example 167, N-[(1S)-1-Cyclopropyl-2,2,2-trifluoroethyl]-1-(3,5-difluoropyridin-2-yl)-7-[3-(2-hydroxyethyl)-2-oxoimidazolidin-1-yl]-4-oxo-1,4-dihydro-1,8-naphthyridine-3-carboxamide] | – | 6.38 | – | 92%
13 | O=C(N[C@H](C1CC1)C(F)(F)F)c1cn(-c2ncccc2F)c2nc(N3CC4C[C@@]4(O)C3)ccc2c1=O (single isomer, unassigned) [Example 137] | – | 6.96 | 99.00% | –
14 | CC1(NC(=O)c2cn(-c3ncc(F)cc3F)c3nc(N4C[C@@H](O)[C@H](O)C4)ccc3c2=O)CC(F)(F)C1 [Example 170, N-(3,3-Difluoro-1-methylcyclobutyl)-1-(3,5-difluoropyridin-2-yl)-7-[(3R,4R)-3,4-dihydroxypyrrolidin-1-yl]-4-oxo-1,4-dihydro-1,8-naphthyridine-3-carboxamide] | – | 5.65 | – | 86%
15 | CC(NC(=O)c1cn(-c2ncc(F)cc2F)c2nc(N3CC(CO)(CO)C3)ccc2c1=O)C(F)(F)C(F)(F)F (single isomer, unassigned) [Example 183, 7-[3,3-Bis(hydroxymethyl)azetidin-1-yl]-1-(3,5-difluoropyridin-2-yl)-4-oxo-N-[3,3,4,4,4-pentafluorobutan-2-yl]-1,4-dihydro-1,8-naphthyridine-3-carboxamide] | – | 7.28 | – | 100%
16 | CC(C)(C)[C@@H](NC(=O)c1cn(-c2ncc(F)cc2F)c2nc(N3CCCN(CCO)C3=O)ccc2c1=O)C(F)(F)F [Example 127, 1-(3,5-Difluoropyridin-2-yl)-7-[3-(2-hydroxyethyl)-2-oxotetrahydropyrimidin-1(2H)-yl]-4-oxo-N-[(2R)-1,1,1-trifluoro-3,3-dimethylbutan-2-yl]-1,4-dihydro-1,8-naphthyridine-3-carboxamide] | – | 7.30 | – | 96%
17 | CC[C@H](NC(=O)c1cn(-c2c(F)cncc2F)c2nc(N3CCNC3=O)ccc2c1=O)C(F)(F)F [Example 128, 1-(3,5-Difluoropyridin-4-yl)-4-oxo-7-(2-oxoimidazolidin-1-yl)-N-[(2S)-1,1,1-trifluorobutan-2-yl]-1,4-dihydro-1,8-naphthyridine-3-carboxamide] | – | 6.28 | – | 89%
18 | CC(C)(NC(=O)c1cn(-c2ncc(F)cc2F)c2nc(N3CCC(O)(CO)CC3)ccc2c1=O)C(F)(F)C(F)(F)F [Example 174, 1-(3,5-Difluoropyridin-2-yl)-7-[4-hydroxy-4-(hydroxymethyl)piperidin-1-yl]-4-oxo-N-(3,3,4,4,4-pentafluoro-2-methylbutan-2-yl)-1,4-dihydro-1,8-naphthyridine-3-carboxamide] | – | 7.08 | – | 100%
19 | O=C(NC(C1CC1)C(F)(F)F)c1cn(-c2ncc(F)cc2F)c2nc(N3CC[C@H](O)C3=O)ccc2c1=O (stereo partly drawn) [Example 25, N-[1-Cyclopropyl-2,2,2-trifluoroethyl]-1-(3,5-difluoropyridin-2-yl)-7-[(3S)-3-hydroxy-2-oxopyrrolidin-1-yl]-4-oxo-1,4-dihydro-1,8-naphthyridine-3-carboxamide] | – | 6.68 | – | 98%
20 | CC(C)C[C@H](NC(=O)c1cn(-c2ncc(F)cc2F)c2nc(N3CCNC3=O)ccc2c1=O)C(F)(F)F [Example 157, 1-(3,5-Difluoropyridin-2-yl)-4-oxo-7-(2-oxoimidazolidin-1-yl)-N-[(2S)-1,1,1-trifluoro-4-methylpentan-2-yl]-1,4-dihydro-1,8-naphthyridine-3-carboxamide] | – | 7.30 | – | 100%
21 | O=C(NC1CCC1)c1cn(-c2ncc(F)cc2F)c2nc(N3CCNC3=O)ccc2c1=O [Example 146, N-Cyclobutyl-1-(3,5-difluoropyridin-2-yl)-4-oxo-7-(2-oxoimidazolidin-1-yl)-1,4-dihydro-1,8-naphthyridine-3-carboxamide] | – | 6.04 | – | 96%
22 | CC(C)(NC(=O)c1cn(-c2ncc(F)cc2F)c2nc(N3CCC(CO)(CO)CC3)ccc2c1=O)C(F)(F)C(F)(F)F [Example 187] | – | 6.58 | – | 97.5%
23 | C[C@@H]1CN(c2ccc3c(=O)c(C(=O)NC(C)(C)C(F)F)cn(-c4ncc(F)cc4F)c3n2)C(=O)N1 [Example 144, N-(1,1-difluoro-2-methylpropan-2-yl)-1-(3,5-difluoropyridin-2-yl)-7-[(4R)-4-methyl-2-oxoimidazolidin-1-yl]-4-oxo-1,4-dihydro-1,8-naphthyridine-3-carboxamide] | – | 6.82 | – | 92%
